The record followed here is PMC9601927 (Foods, 2022).

One data set has as its system sGLT1. Put plainly: siRNA-mediated knockdown of sGLT1 in Caco-2 cells (RT-PCR, Western blot). The class given is cell-based. The settings on record: 72 h post-transfection. As to the method: (§1) To examine the effect of sGLT1 and GLUT2 on ANC transmembrane transport in more detail, the Caco-2 cells were transfected with siRNA targeted to sGLT1 and GLUT2 (sGLT1 siRNA-1, sGLT1 siRNA-2, sGLT1 siRNA-3, GLUT2 siRNA-1, GLUT2 siRNA-2, and GLUT2 siRNA-3) to knockdown their expression on day 18 after differentiation. The specific experimental operation was carried out according to the literature. NC siRNA was used as a negative control. The siRNA oligos and all transfection reagents were provided by Hippobio (Huzhou, China). Western blotting and real-time PCR (RT-PCR) analyses were performed to check the sGLT1 and GLUT2 expression levels after 72 h post-transfection.
(§2) According to the manufacturer’s instructions, the MiniBEST Universal RNA Extraction Kit was used to isolate the total RNA from Caco-2 cells. Table 2 lists the three specific primers. GAPDH served as an internal control. […] The 2^−ΔΔCt method was adopted to calculate the relative quantification of the target gene.
(§3) Firstly, the cells were washed twice with 1 mL of cold PBS and then lysed in 100 μL of ice-cold RIPA lysis buffer. […] Finally, the expressions of sGLT1 and GLUT2 were detected using a Western blot assay.
Background: Immunoblotting shows a protein as a band on a membrane.

The next data set has as its system GLUT2. Description: siRNA-mediated knockdown of GLUT2 in Caco-2 cells (RT-PCR, Western blot). The class given is cell-based. The settings on record: 72 h post-transfection. The protocol: as §1, §2, §3

With “sGLT1 siRNA-3: siRNA targeted to sGLT1: GGAGCGTATTGACCTGGATTT ATCCAGGTCAATACGCTCCTT (GGAGCGTATTGACCTGGATTTATCCAGGTCAATACGCTCCTT; chemistry not given here)”, in the data set on sGLT1, the “expression of sGLT1 (Western blot) after siRNA transfection” value is “significantly reduced” and the “reduction of sGLT1 mRNA levels (RT-PCR)” value is given as 85%.
Turning to “GLUT2 siRNA-2: siRNA targeted to GLUT2: CGGGCATTCTTATTAGTCATT TGACTAATAAGAATGCCCGTT (CGGGCATTCTTATTAGTCATTTGACTAATAAGAATGCCCGTT; chemistry not given here)”, in the data set on GLUT2, the “reduction of GLUT2 mRNA levels (RT-PCR)” value amounted to 75% and the “silencing of GLUT2 (Western blot) after siRNA transfection” value is on record as “most effective segment”.
